Assay results reported in patent US12714715B2, “Agent for treating myopia, preventing myopia and/or suppressing myopia progression” (SANTEN PHARMACEUTICAL CO., LTD., priority 2020, dated 2026).

Columns and labels:
[1] = test system: guinea pigs; assay: Evaluation of mydriatic action (pupil diameter, pupillary light reflex) after repeated topical administration to one eye; assay type: in vivo, guinea pig; details: for Pupil diameter before administration / Decreased pupillary light reflex / Maximum pupil diameter / Measurement time of maximum pupil diameter: 10 μL topical to left eye once daily 5 days; for Pupil diameter before administration: before administration on day 5, average of 3 guinea pigs; for Decreased pupillary light reflex / Measurement time of maximum pupil diameter: day 5; for Maximum pupil diameter: longest average diameter among measurement times on day 5
Experimental: An atropine solution was repeatedly topically administered to one eye of a guinea pig to evaluate the effect of the solution on mydriasis.
Atropine sulfate hydrate and glycerin were dissolved in water for injection to prepare 0.001%, 0.0003% and 0.0001% atropine solutions without adjusting the pH.
Each of the prepared solutions was topically administered to the left eye of guinea pigs (the left eyes of 3 guinea pigs for each solution) in a volume of 10 μL once daily for 5 days. The pupil diameter of each guinea pig was measured before the administration on day 5 as well as 1, 2 and 4 hours after the administration to observe the pupillary light reflex. The measured pupil diameters of each guinea pig at each measurement time were averaged to obtain the average value. The obtained average value was defined as the average pupil diameter. Among each average pupil diameter at each measurement time, the longest diameter was defined as the maximum pupil diameter.

[2] = test system: guinea pig myopia model; assay: Test on suppression of myopia progression (axial length elongation and refractive error) in guinea pig myopia model; assay type: in vivo, guinea pig (Slc:Hartley); details: for Difference of axial lengths / Difference of refraction: 10 μL topical to goggled right eye once daily 14 days, right eye − left eye, average n=6; for Difference of axial lengths / Difference of refraction / Suppression rate of axial length elongation / Suppression rate of refraction / Suppression rate of refractive error: day 14; for Suppression rate of axial length elongation / Suppression rate of refraction / Suppression rate of refractive error: vs vehicle control group
Experimental: According to the following procedures, the effect of AFDX0250 on the suppression of myopia progression (the axial length elongation and the refractive error) was evaluated.
AFDX0250 was dissolved in purified water with a buffering agent and a tonicity agent to prepare 0.5% AFDX0250 solution. 1 mol/L sodium hydroxide reagent solution or dilute hydrochloric acid was added to the solution to adjust the pH thereof to neutral. Also, a buffering agent and a tonicity agent were dissolved in purified water to prepare a neutral vehicle. 9.8 mL of the vehicle was mixed with 0.2 mL of 0.5% AFDX0250 solution and stirred to prepare 0.01% AFDX0250 solution. 3 mL, 4 mL and 4.5 mL of the vehicles were mixed with 2 mL, 1 mL and 0.5 mL of 0.01% AFDX0250 solutions, respectively, and stirred to prepare 0.004%, 0.002% and 0.001% AFDX0250 solutions.
A test tube with a diameter of 18 mm was cut off at the level of 10 mm from the bottom, and the cut-off bottom part was glued to one side of Velcro tape (about 20 mm square) with a hole of an appropriate diameter in the center with an adhesive agent to prepare a lens (goggle). 3-week-old guinea pigs (Slc:Hartley) (n=30) were obtained, and the prepared goggle was covered to the right eye of each guinea pig with an adhesive agent to induce myopia to the guinea pigs. The left eye thereof without goggle was used as control.
The […] group, 0.004% AFDX0250 solution administration group, […] group (control group) (n=6 per group). In the AFDX0250 solution administration groups, 10 μL of the AFDX0250 solution in each concentration was topically administered to the right eye of each guinea pig once daily for 14 days from the day when the right eye was covered with the goggle (day 0) to day 13. In the control group, 10 μL of the vehicle was topically administered to the right eye of each guinea pig once daily for 14 days from the day when the right eye was covered with the goggle (day 0) to day 13. In the all groups, 10 μL of the vehicle was topically administered to the left eye at the same frequency of administration as that of each group daily for 14 days from day 0 to day 13. The guinea pigs were reared under a normal rearing condition.
On day 14 from the myopia induction, the axial lengths of right and left eyeballs were measured with an ultrasound axial length measurement device ECHOSCAN US-500 (A-scan) (NIDEK CO., LTD.), and the refractions were measured with the auto refractometer AR-1a (NIDEK CO., LTD.). The difference of axial lengths and the suppression rate of the axial length elongation as well as the difference of refraction and the suppression rate of the refractive error were calculated according to the following formulae. The calculation was performed in Microsoft Excel. Difference of axial lengths (mm)=Axial length of right eye (mm)−Axial length of left eye (mm) Suppression rate of axial length elongation (%)=(1−Difference of axial lengths in AFDX0250 solution administration group/Difference of axial lengths in control group)×100 (Formula) Difference of refraction (D)=Refraction of right eye (D)−Refraction of left eye (D) Suppression rate of refractive error (%)=(1−Difference of refraction in AFDX0250 solution administration group/Difference of refraction in control group)×100 (Formula) (Test Result)
AFDX0250 was dissolved in purified water with a buffering agent and a tonicity agent to prepare 0.5% AFDX0250 solution. 1 mol/L sodium hydroxide reagent solution or dilute hydrochloric acid was added to the solution to adjust the pH thereof to neutral. Also, a buffering agent and a tonicity agent were dissolved in purified water to prepare a neutral vehicle. 4 mL and 4.8 mL of vehicles were mixed with 1 mL and 0.2 mL of 0.5% AFDX0250 solutions, respectively, and stirred to prepare 0.1% and 0.02% of AFDX0250 solutions. Also, 4 mL of the vehicle was mixed with 1 mL of 0.02% AFDX0250 solution and stirred to prepare 0.004% AFDX0250 solution. […]

[3] = Example 1, 0.001% solution, topical once daily 14 days
[4] = Example 1, 0.002% solution, topical once daily 14 days
[5] = Example 1, 0.004% solution, topical once daily 14 days
[6] = Example 1, 0.01% solution, topical once daily 14 days
[7] = Example 2, 0.004% solution, topical once daily 14 days
[8] = Example 2, 0.02% solution, topical once daily 14 days
[9] = Example 2, 0.1% solution, topical once daily 14 days
[10] = Example 2, 0.5% solution, topical once daily 14 days
[11] = Comparative Example 3, 0.0001% solution
[12] = Comparative Example 3, 0.0003% solution
[13] = Comparative Example 3, 0.001% solution

CCN(CC)CC1CCCCN1CC(=O)N1c2ccccc2C(=O)Nc2cccnc21 (single isomer, unassigned; (+)) [AFDX0250, (+)-11-[2-[2-[(diethylamino)methyl]-1-piperidinyl]acetyl]-5,11-dihydro-6H-pyrido[2,3-b][1,4]benzodiazepin-6-one]
Mydriatic action (pupil diameter and pupillary light reflex, in words) ([1]; guinea pig, in vivo): increased the pupil diameter and decreased the pupillary light reflex
Difference of axial lengths ([2]; Example 1, 0.001% solution): 0.17 mm
Difference of refraction ([2]; Example 1, 0.001% solution): −6.12 D
Suppression rate of axial length elongation [2, 3]: 15.85%
Suppression rate of refraction [2, 3]: 22.78%
Difference of axial lengths ([2]; Example 1, 0.002% solution): 0.09 mm
Difference of refraction ([2]; Example 1, 0.002% solution): −2.78 D
Suppression rate of axial length elongation [2, 4]: 55.46%
Suppression rate of refraction [2, 4]: 64.95%
Difference of axial lengths ([2]; Example 1, 0.004% solution): 0.07 mm
Difference of refraction ([2]; Example 1, 0.004% solution): −2.39 D
Suppression rate of axial length elongation [2, 5]: 63.39%
Suppression rate of refraction [2, 5]: 69.80%
Difference of axial lengths ([2]; Example 1, 0.01% solution): 0.06 mm
Difference of refraction ([2]; Example 1, 0.01% solution): −3.63 D
Suppression rate of axial length elongation [2, 6]: 68.58%
Suppression rate of refraction [2, 6]: 54.19%
Difference of axial lengths ([2]; Example 2, 0.004% solution): 0.07 mm
Difference of refraction ([2]; Example 2, 0.004% solution): −3.25 D
Suppression rate of axial length elongation [2, 7]: 66.85%
Suppression rate of refractive error [2, 7]: 59.27%
Difference of axial lengths ([2]; Example 2, 0.02% solution): 0.05 mm
Difference of refraction ([2]; Example 2, 0.02% solution): −2.52 D
Suppression rate of axial length elongation [2, 8]: 74.16%
Suppression rate of refractive error [2, 8]: 68.43%
Difference of axial lengths ([2]; Example 2, 0.1% solution): 0.04 mm
Difference of refraction ([2]; Example 2, 0.1% solution): −2.05 D
Suppression rate of axial length elongation [2, 9]: 79.21%
Suppression rate of refractive error [2, 9]: 74.35%
Difference of axial lengths ([2]; Example 2, 0.5% solution): 0.02 mm
Difference of refraction ([2]; Example 2, 0.5% solution): −2.03 D
Suppression rate of axial length elongation [2, 10]: 88.48%
Suppression rate of refractive error [2, 10]: 74.64%
Effect on the axial length elongation and the refractive error (summary in words) ([2]; summary of Examples 1 and 2 (AFDX0250) and Comparative Examples 1 and 2 (AFDX0116), topical once daily 14 days): strongly suppressed the axial length elongation and the refractive error

CN1[C@@H]2CC[C@H]1CC(OC(=O)C(CO)c1ccccc1)C2.CN1[C@@H]2CC[C@H]1CC(OC(=O)C(CO)c1ccccc1)C2.O.O=S(=O)(O)O (stereo partly shown) [atropine, Atropine sulfate hydrate]
Pupil diameter before administration [1, 11]: 2.3 mm
Decreased pupillary light reflex [1, 11]: 0/3
Maximum pupil diameter [1, 11]: 2.8 mm
Pupil diameter before administration [1, 12]: 3.0 mm
Decreased pupillary light reflex [1, 12]: 1/3
Measurement time of maximum pupil diameter [1, 12]: 1 h
Maximum pupil diameter [1, 12]: 3.8 mm
Mydriatic action (pupil diameter and pupillary light reflex, in words) ([1]; Comparative Example 3, 0.001% and 0.0003% atropine solution administration groups): the increased pupil diameter and the decreased pupillary light reflex were found
Pupil diameter before administration [1, 13]: 2.6 mm
Decreased pupillary light reflex [1, 13]: 3/3
Measurement time of maximum pupil diameter [1, 13]: 1 h
Maximum pupil diameter [1, 13]: 4.9 mm
